Measurements from patent US20090155209A1, “NOVEL MACROCYCLIC INHIBITORS OF HEPATITIS C VIRUS REPLICATION” (priority 2007, published 2009).

Legend:
[1] = biological target: T1, NS3-NS4 (Hepatitis C virus genotype 1a, UniProt P27958); assay: cell-based; settings: EC50, NS3-NS4 activity
[2] = biological target: T1, NS3-NS4; assay: NS3-NS4 activity, IC50 (Example 37, Table 8); type: biochemical

T1 sequence (P27958 1027-1657): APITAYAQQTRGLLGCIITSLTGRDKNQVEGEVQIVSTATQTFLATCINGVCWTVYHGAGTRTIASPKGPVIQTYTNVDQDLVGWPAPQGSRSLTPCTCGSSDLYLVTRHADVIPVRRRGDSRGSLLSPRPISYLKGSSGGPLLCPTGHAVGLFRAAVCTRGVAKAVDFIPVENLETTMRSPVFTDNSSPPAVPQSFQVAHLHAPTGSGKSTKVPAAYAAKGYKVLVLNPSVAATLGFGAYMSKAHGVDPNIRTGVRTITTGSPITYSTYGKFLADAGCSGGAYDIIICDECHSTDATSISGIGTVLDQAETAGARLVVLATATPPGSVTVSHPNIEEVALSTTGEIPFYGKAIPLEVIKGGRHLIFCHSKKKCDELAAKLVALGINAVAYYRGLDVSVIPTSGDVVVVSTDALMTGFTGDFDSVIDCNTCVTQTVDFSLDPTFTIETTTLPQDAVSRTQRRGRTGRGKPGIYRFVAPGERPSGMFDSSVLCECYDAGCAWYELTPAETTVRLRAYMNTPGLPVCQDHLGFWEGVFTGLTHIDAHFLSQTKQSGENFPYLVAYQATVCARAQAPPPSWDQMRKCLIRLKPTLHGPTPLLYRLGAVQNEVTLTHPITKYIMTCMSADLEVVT
T1 sequence (P27958 1658-1711): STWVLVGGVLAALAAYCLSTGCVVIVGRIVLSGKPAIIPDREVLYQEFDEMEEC

| Structure (SMILES) | EC50 [1] | IC50 [2] |
| --- | --- | --- |
| CC(C)(C)OC(=O)N[C@H]1CCCCC/C=C\[C@@H]2C[C@@]2(C(=O)NS(=O)(=O)c2cc(Cl)ccc2Cl)NC(=O)[C@@H]2C[C@@H](OC(=O)N3Cc4cccc(F)c4C3)CN2C1=O [Compound 316] | < 100 nM | < 100 nM |
| Cc1cccc(S(=O)(=O)NC(=O)[C@@]23C[C@H]2/C=C\CCCCC[C@H](NC(=O)OC(C)(C)C)C(=O)N2C[C@H](OC(=O)N4Cc5cccc(F)c5C4)C[C@H]2C(=O)N3)c1 [Compound 317] | < 100 nM | < 100 nM |
| Cc1ccc(S(=O)(=O)NC(=O)[C@@]23C[C@H]2/C=C\CCCCC[C@H](NC(=O)OC(C)(C)C)C(=O)N2C[C@H](OC(=O)N4Cc5cccc(F)c5C4)C[C@H]2C(=O)N3)cc1 [Compound 318] | < 100 nM | < 100 nM |
| CC(C)(C)OC(=O)N[C@H]1CCCCC/C=C\[C@@H]2C[C@@]2(C(=O)NS(=O)(=O)c2cc(Cl)sc2Cl)NC(=O)[C@@H]2C[C@@H](OC(=O)N3Cc4ccccc4C3)CN2C1=O [Compound 319] | < 100 nM | < 100 nM |
| CCc1ccc(S(=O)(=O)NC(=O)[C@@]23C[C@H]2/C=C\CCCCC[C@H](NC(=O)OC(C)(C)C)C(=O)N2C[C@H](OC(=O)N4Cc5cccc(F)c5C4)C[C@H]2C(=O)N3)cc1 [Compound 320] | < 100 nM | < 100 nM |
| Cc1ccccc1S(=O)(=O)NC(=O)[C@@]12C[C@H]1/C=C\CCOCC[C@H](NC(=O)OC(C)(C)C)C(=O)N1C[C@H](OC(=O)N3Cc4cccc(Cl)c4C3)C[C@H]1C(=O)N2 [Compound 321, (2R,6S,13aS,14aR,16aSZ)-6-(tert-butoxycarbonylamino)-5,16-dioxo-14a-(o-tolylsulfonylcarbamoyl)-2,3,5,6,7,8,10,11,13a,14,14a,15,16,16a-tetradecahydro-1H-cyclopropa[j]pyrrolo[1,2-f][1,6,9]oxadiazacyclopentadecin-2-yl 4-chloroisoindoline-2-carboxylate] | < 100 nM | < 100 nM |
| CC(C)(C)OC(=O)N[C@H]1CCOCC/C=C\[C@@H]2C[C@@]2(C(=O)NS(=O)(=O)c2cc(Cl)sc2Cl)NC(=O)[C@@H]2C[C@@H](OC(=O)N3Cc4cccc(Cl)c4C3)CN2C1=O [Compound 322, (2R,6S,13aS,14aR,16aS,Z)-6-(tert-butoxycarbonylamino)-14a-(2,5-dichlorothiophen-3-ylsulfonylcarbamoyl)-5,16-dioxo-2,3,5,6,7,8,10,11,13a,14,14a,15,16,16a-tetradecahydro-1H-cyclopropa[j]pyrrolo[1,2-f][1,6,9]oxadiazacyclopentadecin-2-yl 4-chloroisoindoline-2-carboxylate] | < 100 nM | < 100 nM |
| CC(C)(C)OC(=O)N[C@H]1CCOCC/C=C\[C@@H]2C[C@@]2(C(=O)NS(=O)(=O)c2ccc(Cl)cc2)NC(=O)[C@@H]2C[C@@H](OC(=O)N3Cc4cccc(Cl)c4C3)CN2C1=O [Compound 324, (2R,6S,13aS,14aR,16aSZ)-6-(tert-butoxycarbonylamino)-14a-(4-chlorophenylsulfonylcarbamoyl)-5,16-dioxo-2,3,5,6,7,8,10,11,13a,14,14a,15,16,16a-tetradecahydro-1H-cyclopropa[j]pyrrolo[1,2-f][1,6,9]oxadiazacyclopentadecin-2-yl 4-chloroisoindoline-2-carboxylate] | < 100 nM | < 100 nM |
| CCC(C)(C)OC(=O)N[C@H]1CCOCC/C=C\[C@@H]2C[C@@]2(C(=O)NS(=O)(=O)c2ccc(Cl)cc2)NC(=O)[C@@H]2C[C@@H](OC(=O)N3Cc4cccc(Cl)c4C3)CN2C1=O [Compound 325, (2R,6S,13aS,14aR,16aS,Z)-14a-(4-chlorophenylsulfonylcarbamoyl)-5,16-dioxo-6-(tert-pentyloxycarbonylamino)-2,3,5,6,7,8,10,11,13a,14,14a,15,16,16a-tetradecahydro-1H-cyclopropa[j]pyrrolo[1,2-f][1,6,9]oxadiazacyclopentadecin-2-yl 4-chloroisoindoline-2-carboxylate] | < 100 nM | < 100 nM |
| CC(C)(C)OC(=O)N[C@H]1CCCCC/C=C\[C@@H]2C[C@@]2(C(=O)NS(=O)(=O)c2ccccc2Cl)NC(=O)[C@@H]2C[C@@H](OC(=O)N3Cc4cccc(F)c4C3)CN2C1=O [Compound 332] | < 100 nM | < 100 nM |
| CC(C)(C)OC(=O)N[C@H]1CCCCC/C=C\[C@@H]2C[C@@]2(C(=O)NS(=O)(=O)c2ccc(Cl)cc2)NC(=O)[C@@H]2C[C@@H](OC(=O)N3Cc4cccc(F)c4C3)CN2C1=O [Compound 333] | < 100 nM | < 100 nM |
| O=C(N[C@H]1CCCCC/C=C\[C@@H]2C[C@@]2(C(=O)NS(=O)(=O)c2ccc(Cl)cc2)NC(=O)[C@@H]2C[C@@H](OC(=O)N3Cc4cccc(F)c4C3)CN2C1=O)OC1CCOC1 (stereo partly drawn) [Compound 334] | < 100 nM | < 100 nM |
| O=C(N[C@H]1CCCCC/C=C\[C@@H]2C[C@@]2(C(=O)NS(=O)(=O)c2ccc(Cl)cc2)NC(=O)[C@@H]2C[C@@H](OC(=O)N3Cc4cccc(Cl)c4C3)CN2C1=O)OC1CCOCC1 [Compound 335] | 100 to 1000 nM | < 100 nM |
| CCC(C)(C)OC(=O)N[C@H]1CCCCC/C=C\[C@@H]2C[C@@]2(C(=O)NS(=O)(=O)c2ccc(Cl)cc2)NC(=O)[C@@H]2C[C@@H](OC(=O)N3Cc4cccc(F)c4C3)CN2C1=O [Compound 336] | < 100 nM | < 100 nM |
| CCC(C)(C)OC(=O)N[C@H]1CCCCC/C=C\[C@@H]2C[C@@]2(C(=O)NS(=O)(=O)c2ccccc2C)NC(=O)[C@@H]2C[C@@H](OC(=O)N3Cc4cccc(F)c4C3)CN2C1=O [Compound 337] | < 100 nM | < 100 nM |
| Cc1ccccc1S(=O)(=O)NC(=O)[C@@]12C[C@H]1/C=C\CCCCC[C@H](NC(=O)OC1CCC1)C(=O)N1C[C@H](OC(=O)N3Cc4cccc(F)c4C3)C[C@H]1C(=O)N2 [Compound 338] | < 100 nM | < 100 nM |
| O=C(N[C@H]1CCCCC/C=C\[C@@H]2C[C@@]2(C(=O)NS(=O)(=O)c2ccc(Cl)cc2)NC(=O)[C@@H]2C[C@@H](OC(=O)N3Cc4cccc(F)c4C3)CN2C1=O)OC1CCC1 [Compound 339] | < 100 nM | < 100 nM |

| Structure (SMILES) | EC50 [1] | IC50 [2] |
| --- | --- | --- |
| CC(C)(C)COC(=O)N[C@H]1CCCCC/C=C\[C@@H]2C[C@@]2(C(=O)NS(=O)(=O)c2ccc(Cl)cc2)NC(=O)[C@@H]2C[C@@H](OC(=O)N3Cc4cccc(F)c4C3)CN2C1=O [Compound 340] | < 100 nM | < 100 nM |
| CC(C)COC(=O)N[C@H]1CCCCC/C=C\[C@@H]2C[C@@]2(C(=O)NS(=O)(=O)c2ccc(Cl)cc2)NC(=O)[C@@H]2C[C@@H](OC(=O)N3Cc4cccc(F)c4C3)CN2C1=O [Compound 341] | < 100 nM | < 100 nM |
| CC(C)COC(=O)N[C@H]1CCCCC/C=C\[C@@H]2C[C@@]2(C(=O)NS(=O)(=O)c2cc(Cl)sc2Cl)NC(=O)[C@@H]2C[C@@H](OC(=O)N3Cc4cccc(F)c4C3)CN2C1=O [Compound 342] | < 100 nM | < 100 nM |
| CC(C)(C)COC(=O)N[C@H]1CCCCC/C=C\[C@@H]2C[C@@]2(C(=O)NS(=O)(=O)c2cc(Cl)sc2Cl)NC(=O)[C@@H]2C[C@@H](OC(=O)N3Cc4cccc(F)c4C3)CN2C1=O [Compound 343] | < 100 nM | < 100 nM |
| CCC(C)(C)OC(=O)N[C@H]1CCCCC/C=C\[C@@H]2C[C@@]2(C(=O)NS(=O)(=O)c2cc(Cl)sc2Cl)NC(=O)[C@@H]2C[C@@H](OC(=O)N3Cc4cccc(F)c4C3)CN2C1=O [Compound 344] | < 100 nM | < 100 nM |
| CC(C)(C)OC(=O)N[C@H]1CCCCC/C=C\[C@@H]2C[C@@]2(C(=O)NS(=O)(=O)c2ccccc2C(F)(F)F)NC(=O)[C@@H]2C[C@@H](OC(=O)N3Cc4cccc(F)c4C3)CN2C1=O [Compound 345] | < 100 nM | < 100 nM |
| Cc1cc(F)ccc1S(=O)(=O)NC(=O)[C@@]12C[C@H]1/C=C\CCCCC[C@H](NC(=O)OC(C)(C)C)C(=O)N1C[C@H](OC(=O)N3Cc4cccc(F)c4C3)C[C@H]1C(=O)N2 [Compound 346] | < 100 nM | < 100 nM |
| CC(C)(C)OC(=O)N[C@H]1CCCCC/C=C\[C@@H]2C[C@@]2(C(=O)NS(=O)(=O)c2ccc(C(F)(F)F)cc2)NC(=O)[C@@H]2C[C@@H](OC(=O)N3Cc4cccc(F)c4C3)CN2C1=O [Compound 347] | < 100 nM | < 100 nM |
| CC(C)(C)OC(=O)N[C@H]1CCCCC/C=C\[C@@H]2C[C@@]2(C(=O)NS(=O)(=O)c2ccc(Cl)cc2Cl)NC(=O)[C@@H]2C[C@@H](OC(=O)N3Cc4cccc(F)c4C3)CN2C1=O [Compound 348] | < 100 nM | < 100 nM |
| CC(C)(C)OC(=O)N[C@H]1CCCCC/C=C\[C@@H]2C[C@@]2(C(=O)NS(=O)(=O)c2ccccc2F)NC(=O)[C@@H]2C[C@@H](OC(=O)N3Cc4cccc(F)c4C3)CN2C1=O [Compound 349] | < 100 nM | < 100 nM |
| CC(C)(C)OC(=O)N[C@H]1CCCCC/C=C\[C@@H]2C[C@@]2(C(=O)NS(=O)(=O)c2cccc(F)c2)NC(=O)[C@@H]2C[C@@H](OC(=O)N3Cc4cccc(F)c4C3)CN2C1=O [Compound 350] | < 100 nM | < 100 nM |
| CC(C)(C)OC(=O)N[C@H]1CCCCC/C=C\[C@@H]2C[C@@]2(C(=O)NS(=O)(=O)c2ccc(F)cc2)NC(=O)[C@@H]2C[C@@H](OC(=O)N3Cc4cccc(F)c4C3)CN2C1=O [Compound 351] | < 100 nM | < 100 nM |
| COc1ccc(S(=O)(=O)NC(=O)[C@@]23C[C@H]2/C=C\CCCCC[C@H](NC(=O)OC(C)(C)C)C(=O)N2C[C@H](OC(=O)N4Cc5cccc(F)c5C4)C[C@H]2C(=O)N3)cc1 [Compound 352] | < 100 nM | < 100 nM |
| CC(C)(C)OC(=O)N[C@H]1CCCCC/C=C\[C@@H]2C[C@@]2(C(=O)NS(=O)(=O)c2cccc(Cl)c2)NC(=O)[C@@H]2C[C@@H](OC(=O)N3Cc4cccc(F)c4C3)CN2C1=O [Compound 353] | < 100 nM | < 100 nM |
| CC(C)(C)OC(=O)N[C@H]1CCCCC/C=C\[C@@H]2C[C@@]2(C(=O)NS(=O)(=O)c2cc(Cl)c(Cl)s2)NC(=O)[C@@H]2C[C@@H](OC(=O)N3Cc4cccc(F)c4C3)CN2C1=O [Compound 354] | 100 to 1000 nM | < 100 nM |
| Cc1ccc(S(=O)(=O)NC(=O)[C@@]23C[C@H]2/C=C\CCCCC[C@H](NC(=O)OC(C)(C)C)C(=O)N2C[C@H](OC(=O)N4Cc5cccc(F)c5C4)C[C@H]2C(=O)N3)c(C)c1 [Compound 355] | < 100 nM | < 100 nM |
